Experiments:
[1] = target: T1, Methylated-DNA--protein-cysteine methyltransferase (Homo sapiens) (UniProt P16455); settings: HT-29
T1 sequence (whole entry): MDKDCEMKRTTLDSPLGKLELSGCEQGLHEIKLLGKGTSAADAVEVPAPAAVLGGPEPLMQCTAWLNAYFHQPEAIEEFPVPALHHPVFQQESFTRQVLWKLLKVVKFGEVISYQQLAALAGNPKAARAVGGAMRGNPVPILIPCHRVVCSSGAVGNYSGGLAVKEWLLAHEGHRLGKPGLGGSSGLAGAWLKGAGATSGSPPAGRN
Description: AGT-inactivating activity was determined by 50% inactivation in HT-29 cell free extract upon incubation for 30 min

[2] = target: T1, Methylated-DNA--protein-cysteine methyltransferase (Homo sapiens); settings: HT-29; remark: listed apart in the source
Description: AGT-inactivating activity was determined by 50% inactivation in HT-29 cells upon incubation for 4 h

| SMILES | ED50 [1] [µM] | ED50 [2] [µM] |
| --- | --- | --- |
| Nc1cc(OCc2ccccc2)nc(N)n1 | 15 | 5 |
| Nc1ncnc(OCc2ccccc2)c1[N+](=O)[O-] | 28 | 8 |
| CN(C)c1nc(OCc2ccccc2)c2[nH]cnc2n1 | 200 | 110 |
| Nc1nc(N)c(N=O)c(OCc2ccccc2)n1 | 0.06 | 0.02 |
| Oc1nc(OCc2ccccc2)c2[nH]c(O)nc2n1 | 25 | 45 |
| Cc1nc2[nH]c(N)nc(OCc3ccccc3)c-2n1 | 0.3 | 0.1 |
| CC(=O)Nc1nc(OCc2ccccc2)c2[nH]c(O)nc2n1 | 65 | 11 |
| Nc1nc(N)nc(OCc2ccccc2)n1 | 4 | 1 |
| CNc1nc(OCc2ccccc2)c2[nH]cnc2n1 | 160 | 60 |
| Fc1nc(OCc2ccccc2)c2[nH]cnc2n1 | 48 | 12 |
| Cc1nc(N)nc(OCc2ccccc2)c1[N+](=O)[O-] | 0.4 | 0.06 |
| Oc1nc(OCc2ccccc2)c2[nH]cnc2n1 | 60 | 35 |
| Nc1ncc([N+](=O)[O-])c(OCc2ccccc2)n1 | 0.4 | 0.05 |

Other lines, results leading:

| ED50 [1] [µM] | ED50 [2] [µM] | SMILES |
| --- | --- | --- |
| 2 | 0.8 | Nc1nc(N)c(Br)c(OCc2ccccc2)n1 |
| 0.3 | 0.15 | Nc1nc(OCc2ccccc2)c2[nH]c(O)nc2n1 |
| 0.7 | 2 | Nc1nc(OCc2ccccc2)c2[nH]c(N)nc2n1 |
| 0.07 | 0.06 | Nc1nc(OCc2ccccc2)c2[nH]nnc2n1 |
| 0.4 | 0.25 | Nc1nc(OCc2ccccc2)c2[nH]c(C(F)(F)F)nc2n1 |
| 0.08 | 0.06 | Nc1nc(OCc2ccccc2)c2[nH]c(Br)nc2n1 |
| 0.4 | 0.3 | Nc1nc(N)c(N)c(OCc2ccccc2)n1 |

Source: ChEMBL document CHEMBL1128442, “8-Substituted O6-benzylguanine, substituted 6(4)-(benzyloxy)pyrimidine, and related derivatives as inactivators of human O6-alkylguanine-DNA alkyltransferase” (J Med Chem, 1995)
